Broadly, the IC50 is the midpoint of a concentration-inhibition curve.

Experimental findings from patent US20250109118A1, “HETEROCYCLIC COMPOUNDS AS SHP2 INHIBITORS, COMPOSITIONS COMPRISING THE HETEROCYCLIC COMPOUND, AND METHODS OF USE THEREOF” (JS INNOMED HOLDINGS LTD., priority 2021, published 2025) are described below.

The target in one experiment is T1, SHP2 (PTPN11/SHP2-FL) (Homo sapiens, UniProt Q06124).
T1 construct: SHP2 (PTPN11/SHP2-FL, RBC produced, no cat #); purchased RBC no cat #
T1 sequence (Q06124 1-593): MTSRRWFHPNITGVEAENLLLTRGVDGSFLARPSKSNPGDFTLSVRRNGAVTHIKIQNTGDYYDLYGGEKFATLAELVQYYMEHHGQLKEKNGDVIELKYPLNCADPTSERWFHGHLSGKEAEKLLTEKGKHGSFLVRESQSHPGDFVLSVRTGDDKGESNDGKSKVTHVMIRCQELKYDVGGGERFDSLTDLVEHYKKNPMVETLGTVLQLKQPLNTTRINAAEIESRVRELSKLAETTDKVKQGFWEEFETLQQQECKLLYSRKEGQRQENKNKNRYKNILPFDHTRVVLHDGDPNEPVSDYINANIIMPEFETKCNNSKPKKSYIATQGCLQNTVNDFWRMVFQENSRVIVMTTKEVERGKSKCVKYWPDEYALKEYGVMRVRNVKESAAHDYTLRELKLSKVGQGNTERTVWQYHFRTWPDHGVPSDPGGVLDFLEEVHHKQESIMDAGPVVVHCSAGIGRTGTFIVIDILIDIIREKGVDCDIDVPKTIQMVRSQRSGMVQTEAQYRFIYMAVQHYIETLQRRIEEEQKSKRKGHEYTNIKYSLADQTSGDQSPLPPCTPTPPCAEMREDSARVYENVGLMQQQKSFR
Kind of experiment: SHP2 biochemical assay (DiFMUP prompt fluorescence). As to conditions: 0.5 nM SHP2, 0.35 μM activating peptide, DiFMUP 100 μM; read-out: SHP2 bichemical activity (IC50). How it is done: SHP2 is allosterically activated through binding of bis-tyro syiphorphorylated peptides to its Src Homology 2 (SH2) domains. The latter activation step leads to the release of the auto-inhibitory interface of SHP2, which in turn renders the SHP2 PTP active and available for substrate recognition and reaction catalysis. The catalytic activity of SHP2 was monitored using the surrogate substrate DiFMUP in a prompt fluorescence assay format. Specifically, the phosphatase reactions were performed at room temperature in 384-well black polystyrene plate, flat bottom, low flange, non-binding surface (Corning, Cat #3575) using a final reaction volume of 20 μL and the following assay buffer conditions: 60 mM HEPES, pH 7.2, 75 mM NaCl, 75 mM KCl, 1 mM EDTA, 0.01% Brij-35, 5 mM DTT, and 10% DMSO (final). The inhibition of SHP2 from the tested compounds (final concentrations varying from 0.003-100 μM) was monitored using an assay in which 0.5 nM of SHP2 (PTPN11/SHP2-FL, RBC produced, no cat #) was incubated with 0.35 μM of the peptide H2NLN(pY)IDLDLV(dPEG8)LST(pY)ASINFQK-amide. After 20 minutes of incubation at room temperature, the surrogate substrate DiFMUP (6,8-difluoro-7-hydroxy-4-methylcoumarin, Invitrogen, cat #D6567, 100 μM final concentration) was added to the reaction. The fluorescence signal was monitored using a microplate reader (Envision, Perkin-Elmer) using excitation and emission wavelengths of 355 nm and 460 nm, respectively. The inhibitor dose response curves were analyzed using normalized IC50 regression curve fitting with control based normalization.
The IC50 values of for Compounds disclosed are listed in Table 2, A: ≤10 nM; B: >10 nM and ≤100 nM; C: >100 nM and ≤1 uM; and D: >1 μM.

In the next experiment the test system is MiaPaCa-2 cells. Kind of experiment: MiaPaCa-2 Cell proliferation assay in 3D culture (CCK8). The experiment is classed as cell-based. Conditions: Homo sapiens, MIA PaCa-2, 120 h; 3D spheroid culture, 5 days with compound, CCK8 readout. The essentials:
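Cells grown as spheroids (2500/well, ultra-low attachment, 10% FBS) for 24 h, then exposed 5 days to ten 3-fold compound dilutions at 0.1% DMSO. Viability by CCK8/WST-8, 1.5 h at 37 °C, absorbance 450 nm; IC50 from triplicates.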

As to `CC1(N)CCN(c2cnc(Sc3cccc(C(=O)NS(C)(=O)=O)c3Cl)cn2)CC1` [Example 19, 3-((5-(4-amino-4-methylpiperidin-1-yl)pyrazin-2-yl)thio)-2-chloro-N-(methylsulfonyl)benzamide], the IC50 on SHP2 (PTPN11/SHP2-FL) was in the range of 0.01 to 0.1 µM; with MiaPaCa-2 cells, 5 to 50 µM.

Regarding `CC1(CN)CCN(c2cnc(Sc3cccc(C(=O)NS(=O)(=O)C4CCCC4)c3Cl)cn2)CC1` [Example 30, 3-((5-(4-(aminomethyl)-4-methylpiperidin-1-yl)pyrazin-2-yl)thio)-2-chloro-N-(cyclopentylsulfonyl)benzamide], the IC50 at SHP2 (PTPN11/SHP2-FL) is at most 0.01 µM; with MiaPaCa-2 cells, 0.5 to 5 µM.

On to `CC1(CN)CCN(c2cnc(Sc3cccc(C(=O)NS(C)(=O)=O)c3Cl)c(N)n2)CC1` [Example 37, 3-((3-amino-5-(4-(aminomethyl)-4-methylpiperidin-1-yl)pyrazin-2-yl)thio)-2-chloro-N-(methylsulfonyl)benzamide], for which the IC50 was in the range of 0.01 to 0.1 µM on SHP2 (PTPN11/SHP2-FL) and 5 to 50 µM in the experiment with MiaPaCa-2 cells.

For `CC1(N)CCN(c2cnc(Sc3cccc(C(=O)NS(=O)(=O)C4CC4)c3Cl)cn2)CC1` [Example 18, 3-((5-(4-amino-4-methylpiperidin-1-yl)pyrazin-2-yl)thio)-2-chloro-N-(cyclopropylsulfonyl)benzamide], the IC50 at SHP2 (PTPN11/SHP2-FL) lay in the range of 0.01 to 0.1 µM; in the experiment with MiaPaCa-2 cells it was 5 to 50 µM.

Turning to `CC1(CN)CCN(c2cnc(Sc3cccc(NC(=O)NS(C)(=O)=O)c3Cl)c(N)n2)CC1` [Example 40, N-((3-((3-amino-5-(4-(aminomethyl)-4-methylpiperidin-1-yl)pyrazin-2-yl)thio)-2-chlorophenyl)carbamoyl)methanesulfonamide], the half-inhibitory concentration (IC50) at SHP2 (PTPN11/SHP2-FL) is at most 0.01 µM; in the experiment on MiaPaCa-2 cells, at most 0.5 µM.

Turning to `CC1(CN)CCN(c2cnc(Sc3cccc(C(=O)NS(=O)(=O)c4ccncc4)c3Cl)c(N)n2)CC1` [Example 39, 3-((3-amino-5-(4-(aminomethyl)-4-methylpiperidin-1-yl)pyrazin-2-yl)thio)-2-chloro-N-(pyridin-4-ylsulfonyl)benzamide], the half-maximal inhibitory concentration (IC50) was in the range of 0.01 to 0.1 µM on SHP2 (PTPN11/SHP2-FL) and 5 to 50 µM in the experiment on MiaPaCa-2 cells.

For `CC1(CN)CCN(c2cnc(Sc3cccc(C(=O)NS(=O)(=O)c4ccncc4)c3Cl)cn2)CC1` [Example 28, 3-((5-(4-(aminomethyl)-4-methylpiperidin-1-yl)pyrazin-2-yl)thio)-2-chloro-N-(pyridin-4-ylsulfonyl)benzamide], the IC50 at SHP2 (PTPN11/SHP2-FL) was at most 0.01 µM; in the experiment with MiaPaCa-2 cells, 0.5 to 5 µM.

For the compound `CC1(N)CCN(c2cnc(Sc3cccc(NC(=O)NS(=O)(=O)c4ccccc4)c3Cl)c(N)n2)CC1` [Example 4, N-((3-((3-amino-5-(4-amino-4-methylpiperidin-1-yl)pyrazin-2-yl)thio)-2-chlorophenyl)carbamoyl)benzenesulfonamide], the IC50 at SHP2 (PTPN11/SHP2-FL) is at most 0.01 µM; in the experiment with MiaPaCa-2 cells, at most 0.5 µM.

In the case of `CC1(CN)CCN(c2cnc(Sc3cccc(NC(=O)NS(=O)(=O)c4ccccc4)c3Cl)cn2)CC1` [Example 2, N-((3-((5-(4-(aminomethyl)-4-methylpiperidin-1-yl)pyrazin-2-yl)thio)-2-chlorophenyl)carbamoyl)benzenesulfonamide], the IC50 at SHP2 (PTPN11/SHP2-FL) was at most 0.01 µM; with MiaPaCa-2 cells it was at most 0.5 µM.

For the compound `CC1(CN)CCN(c2cnc(Sc3cccc(C(=O)NS(C)(=O)=O)c3Cl)cn2)CC1` [Example 26, 3-((5-(4-(aminomethyl)-4-methylpiperidin-1-yl)pyrazin-2-yl)thio)-2-chloro-N-(methylsulfonyl)benzamide], the IC50 at SHP2 (PTPN11/SHP2-FL) was at most 0.01 µM; in the experiment with MiaPaCa-2 cells it was at most 0.5 µM.

With `CC1(CN)CCN(c2cnc(Sc3cccc(C(=O)NS(=O)(=O)c4ccccc4F)c3Cl)c(N)n2)CC1` [Example 34, 3-((3-amino-5-(4-(aminomethyl)-4-methylpiperidin-1-yl)pyrazin-2-yl)thio)-2-chloro-N-((2-fluorophenyl)sulfonyl)benzamide], the figures for the half-maximal inhibitory concentration (IC50) on SHP2 (PTPN11/SHP2-FL) and in the experiment with MiaPaCa-2 cells were at most 0.01 µM and 0.5 to 5 µM, respectively.

For the compound `CC1(CN)CCN(c2cnc(Sc3cccc(C(=O)NS(=O)(=O)c4ccccc4F)c3Cl)cn2)CC1` [Example 23, 3-((5-(4-(aminomethyl)-4-methylpiperidin-1-yl)pyrazin-2-yl)thio)-2-chloro-N-((2-fluorophenyl)sulfonyl)benzamide], the figures for the IC50 at SHP2 (PTPN11/SHP2-FL) and in the experiment with MiaPaCa-2 cells were at most 0.01 µM and 0.5 to 5 µM, respectively.

Turning to `CC1(CN)CCN(c2cnc(Sc3cccc(C(=O)NS(=O)(=O)C4CC4)c3Cl)c(N)n2)CC1` [Example 36, 3-((3-amino-5-(4-(aminomethyl)-4-methylpiperidin-1-yl)pyrazin-2-yl)thio)-2-chloro-N-(cyclopropylsulfonyl)benzamide], the IC50 at SHP2 (PTPN11/SHP2-FL) is 0.01 to 0.1 µM; in the experiment with MiaPaCa-2 cells it was 0.5 to 5 µM.

`CC1(CN)CCN(c2cnc(Sc3cccc(NC(=O)NS(=O)(=O)c4ccncc4)c3Cl)c(N)n2)CC1` [Example 41, N-((3-((3-amino-5-(4-(aminomethyl)-4-methylpiperidin-1-yl)pyrazin-2-yl)thio)-2-chlorophenyl)carbamoyl)pyridine-4-sulfonamide]: the IC50 at SHP2 (PTPN11/SHP2-FL) is at most 0.01 µM; in the experiment with MiaPaCa-2 cells, 5 to 50 µM.

As for `Nc1nc(N2CCC3(CC2)COC[C@H]3N)cnc1Sc1cccc(C(=O)NS(=O)(=O)c2ccccc2)c1Cl` [Example 31, (S)-3-((3-amino-5-(4-amino-2-oxa-8-azaspiro[4.5]decan-8-yl)pyrazin-2-yl)thio)-2-chloro-N-(phenylsulfonyl)benzamide], the IC50 at SHP2 (PTPN11/SHP2-FL) was at most 0.01 µM; in the experiment with MiaPaCa-2 cells, at most 0.5 µM.

As to `CC1(CN)CCN(c2cnc(Sc3cccc(C(=O)NS(=O)(=O)c4cccnc4)c3Cl)c(N)n2)CC1` [Example 38, 3-((3-amino-5-(4-(aminomethyl)-4-methylpiperidin-1-yl)pyrazin-2-yl)thio)-2-chloro-N-(pyridin-3-ylsulfonyl)benzamide], the values for the IC50 on SHP2 (PTPN11/SHP2-FL) and in the experiment on MiaPaCa-2 cells were at most 0.01 µM and 0.5 to 5 µM, respectively.

As for `CC1(CN)CCN(c2cnc(Sc3cccc(C(=O)NS(=O)(=O)C4CCCCC4)c3Cl)cn2)CC1` [Example 27, 3-((5-(4-(aminomethyl)-4-methylpiperidin-1-yl)pyrazin-2-yl)thio)-2-chloro-N-(cyclohexylsulfonyl)benzamide], the IC50 on SHP2 (PTPN11/SHP2-FL) is at most 0.01 µM; in the experiment with MiaPaCa-2 cells, at most 0.5 µM.

As for `CC1(CN)CCN(c2cnc(Sc3cccc(C(=O)NS(=O)(=O)c4ccccn4)c3Cl)cn2)CC1` [Example 22, 3-((5-(4-(aminomethyl)-4-methylpiperidin-1-yl)pyrazin-2-yl)thio)-2-chloro-N-(pyridin-2-ylsulfonyl)benzamide], the IC50 is at most 0.01 µM at SHP2 (PTPN11/SHP2-FL) and at most 0.5 µM in the experiment on MiaPaCa-2 cells.

In the case of `CC1(CN)CCN(c2cnc(Sc3cccc(NC(=O)NS(=O)(=O)C4CC4)c3Cl)c(N)n2)CC1` [Example 43, N-((3-((3-amino-5-(4-(aminomethyl)-4-methylpiperidin-1-yl)pyrazin-2-yl)thio)-2-chlorophenyl)carbamoyl)cyclopropanesulfonamide], the IC50 was at most 0.01 µM at SHP2 (PTPN11/SHP2-FL) and at most 0.5 µM in the experiment on MiaPaCa-2 cells.

Turning to `CC1(CN)CCN(c2cnc(Sc3cccc(C(=O)NS(=O)(=O)c4ccccc4)c3Cl)c(N)n2)CC1` [Example 5, 3-((3-amino-5-(4-(aminomethyl)-4-methylpiperidin-1-yl)pyrazin-2-yl)thio)-2-chloro-N-(phenylsulfonyl)benzamide], the values for the IC50 at SHP2 (PTPN11/SHP2-FL) and in the experiment with MiaPaCa-2 cells were at most 0.01 µM and at most 0.5 µM, respectively.

In the case of `CC1(CN)CCN(c2cnc(Sc3cccc(C(=O)NS(=O)(=O)C4CC4)c3Cl)cn2)CC1` [Example 25, 3-((5-(4-(aminomethyl)-4-methylpiperidin-1-yl)pyrazin-2-yl)thio)-2-chloro-N-(cyclopropylsulfonyl)benzamide], the IC50 is at most 0.01 µM on SHP2 (PTPN11/SHP2-FL) and at most 0.5 µM with MiaPaCa-2 cells.
